{"source": "PubChem BioAssay AID1963963", "about": "(Molecular Pharmacology Branch, DTP, NCI, 2024);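 further: spheroids exposed to compounds for seven days before readout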", "system": "958667-338-R-J2-PDC tumor spheroids viability", "assay": "Anticancer human tumor 958667-338-R-J2-PDC patient-derived colon adenocarcinoma cell line growth inhibition [PI3K]", "settings": "spheroids with HUVEC and MSC; for IC50: curve of first compound; for viability, T/C: stronger effect = lower value", "outline": "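Tumor cells were combined with HUVEC and MSCs into spheroids, then dosed with PI3K-inhibitor combinations over half-log ranges capped near clinical Cmax or 10 microM.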"}
{"smiles": "Cn1cnc2c(F)c(Nc3ccc(Br)cc3Cl)c(C(=O)NOCCO)cc21", "note": "+ CC(Nc1ccc2c(c1)OCCn1cc(N3C(=O)OCC3C(F)F)nc1-2)C(N)=O", "values": [{"measurement": "IC50", "setting": "second compound 0.00316 µM", "result": 436, "unit": "nM"}, {"measurement": "IC50", "setting": "second compound 0.01 µM", "result": 358, "unit": "nM"}, {"measurement": "IC50", "setting": "second compound 0.0316 µM", "result": 174, "unit": "nM"}, {"measurement": "IC50", "setting": "second compound 0.1 µM", "result": 87.5, "unit": "nM"}, {"measurement": "IC50", "setting": "second compound 0.316 µM", "result": 66.9, "unit": "nM"}, {"measurement": "IC50", "setting": "second compound 1 µM", "result": "< 9.49", "unit": "nM"}, {"measurement": "viability, T/C", "setting": "second compound 0.00316 µM, first compound 0.00949 µM", "result": 86.6, "unit": "%"}, {"measurement": "viability, T/C", "setting": "second compound 0.00316 µM, first compound 0.03 µM", "result": 74.4, "unit": "%"}, {"measurement": "viability, T/C", "setting": "second compound 0.00316 µM, first compound 0.0949 µM", "result": 95.9, "unit": "%"}, {"measurement": "viability, T/C", "setting": "second compound 0.00316 µM, first compound 0.3 µM", "result": 57.2, "unit": "%"}, {"measurement": "viability, T/C", "setting": "second compound 0.00316 µM, first compound 0.949 µM", "result": 32, "unit": "%"}, {"measurement": "viability, T/C", "setting": "second compound 0.00316 µM, first compound 3 µM", "result": 16.8, "unit": "%"}, {"measurement": "viability, T/C", "setting": "second compound 0.01 µM, first compound 0.00949 µM", "result": 92.2, "unit": "%"}, {"measurement": "viability, T/C", "setting": "second compound 0.01 µM, first compound 0.03 µM", "result": 101, "unit": "%"}, {"measurement": "viability, T/C", "setting": "second compound 0.01 µM, first compound 0.0949 µM", "result": 73, "unit": "%"}, {"measurement": "viability, T/C", "setting": "second compound 0.01 µM, first compound 0.3 µM", "result": 54.4, "unit": "%"}, {"measurement": "viability, T/C", "setting": "second compound 0.01 µM, first compound 0.949 µM", "result": 30, "unit": "%"}, {"measurement": "viability, T/C", "setting": "second compound 0.01 µM, first compound 3 µM", "result": 12.9, "unit": "%"}, {"measurement": "viability, T/C", "setting": "second compound 0.0316 µM, first compound 0.00949 µM", "result": 88.6, "unit": "%"}, {"measurement": "viability, T/C", "setting": "second compound 0.0316 µM, first compound 0.03 µM", "result": 76.3, "unit": "%"}, {"measurement": "viability, T/C", "setting": "second compound 0.0316 µM, first compound 0.0949 µM", "result": 60.1, "unit": "%"}, {"measurement": "viability, T/C", "setting": "second compound 0.0316 µM, first compound 0.3 µM", "result": 42.4, "unit": "%"}, {"measurement": "viability, T/C", "setting": "second compound 0.0316 µM, first compound 0.949 µM", "result": 20.8, "unit": "%"}, {"measurement": "viability, T/C", "setting": "second compound 0.0316 µM, first compound 3 µM", "result": 9.82, "unit": "%"}, {"measurement": "viability, T/C", "setting": "second compound 0.1 µM, first compound 0.00949 µM", "result": 78.7, "unit": "%"}, {"measurement": "viability, T/C", "setting": "second compound 0.1 µM, first compound 0.03 µM", "result": 57.5, "unit": "%"}, {"measurement": "viability, T/C", "setting": "second compound 0.1 µM, first compound 0.0949 µM", "result": 57.5, "unit": "%"}, {"measurement": "viability, T/C", "setting": "second compound 0.1 µM, first compound 0.3 µM", "result": 25.3, "unit": "%"}, {"measurement": "viability, T/C", "setting": "second compound 0.1 µM, first compound 0.949 µM", "result": 17, "unit": "%"}, {"measurement": "viability, T/C", "setting": "second compound 0.1 µM, first compound 3 µM", "result": 8.31, "unit": "%"}, {"measurement": "viability, T/C", "setting": "second compound 0.316 µM, first compound 0.00949 µM", "result": 59.7, "unit": "%"}, {"measurement": "viability, T/C", "setting": "second compound 0.316 µM, first compound 0.03 µM", "result": 59.5, "unit": "%"}, {"measurement": "viability, T/C", "setting": "second compound 0.316 µM, first compound 0.0949 µM", "result": 46.9, "unit": "%"}, {"measurement": "viability, T/C", "setting": "second compound 0.316 µM, first compound 0.3 µM", "result": 23.7, "unit": "%"}, {"measurement": "viability, T/C", "setting": "second compound 0.316 µM, first compound 0.949 µM", "result": 15.7, "unit": "%"}, {"measurement": "viability, T/C", "setting": "second compound 0.316 µM, first compound 3 µM", "result": 5.79, "unit": "%"}, {"measurement": "viability, T/C", "setting": "second compound 1 µM, first compound 0.00949 µM", "result": 44.6, "unit": "%"}, {"measurement": "viability, T/C", "setting": "second compound 1 µM, first compound 0.03 µM", "result": 43, "unit": "%"}, {"measurement": "viability, T/C", "setting": "second compound 1 µM, first compound 0.0949 µM", "result": 34.8, "unit": "%"}, {"measurement": "viability, T/C", "setting": "second compound 1 µM, first compound 0.3 µM", "result": 22.8, "unit": "%"}, {"measurement": "viability, T/C", "setting": "second compound 1 µM, first compound 0.949 µM", "result": 11.5, "unit": "%"}, {"measurement": "viability, T/C", "setting": "second compound 1 µM, first compound 3 µM", "result": 3.12, "unit": "%"}]}
{"smiles": "CC(C)NCC(C(=O)N1CCN(c2ncnc3c2C(C)CC3O)CC1)c1ccc(Cl)cc1", "note": "(centres undefined) + COc1c(OCCCN2CCOCC2)ccc2c3n(c(=NC(=O)c4cnc(N)nc4)nc12)CCN3", "values": [{"measurement": "IC50", "setting": "second compound 0.00316 µM", "result": "> 10000", "unit": "nM"}, {"measurement": "IC50", "setting": "second compound 0.01 µM", "result": "> 10000", "unit": "nM"}, {"measurement": "IC50", "setting": "second compound 0.0316 µM", "result": "> 10000", "unit": "nM"}, {"measurement": "IC50", "setting": "second compound 0.1 µM", "result": 4020, "unit": "nM"}, {"measurement": "IC50", "setting": "second compound 0.316 µM", "result": "< 31.6", "unit": "nM"}, {"measurement": "IC50", "setting": "second compound 1 µM", "result": "< 31.6", "unit": "nM"}, {"measurement": "viability, T/C", "setting": "second compound 0.00316 µM, first compound 0.0316 µM", "result": 94.4, "unit": "%"}, {"measurement": "viability, T/C", "setting": "second compound 0.00316 µM, first compound 0.1 µM", "result": 88, "unit": "%"}, {"measurement": "viability, T/C", "setting": "second compound 0.00316 µM, first compound 0.316 µM", "result": 74, "unit": "%"}, {"measurement": "viability, T/C", "setting": "second compound 0.00316 µM, first compound 1 µM", "result": 95.7, "unit": "%"}, {"measurement": "viability, T/C", "setting": "second compound 0.00316 µM, first compound 3.16 µM", "result": 90.7, "unit": "%"}, {"measurement": "viability, T/C", "setting": "second compound 0.00316 µM, first compound 10 µM", "result": 60.2, "unit": "%"}, {"measurement": "viability, T/C", "setting": "second compound 0.01 µM, first compound 0.0316 µM", "result": 97.8, "unit": "%"}, {"measurement": "viability, T/C", "setting": "second compound 0.01 µM, first compound 0.1 µM", "result": 73.9, "unit": "%"}, {"measurement": "viability, T/C", "setting": "second compound 0.01 µM, first compound 0.316 µM", "result": 69, "unit": "%"}, {"measurement": "viability, T/C", "setting": "second compound 0.01 µM, first compound 1 µM", "result": 100, "unit": "%"}, {"measurement": "viability, T/C", "setting": "second compound 0.01 µM, first compound 3.16 µM", "result": 54.8, "unit": "%"}, {"measurement": "viability, T/C", "setting": "second compound 0.01 µM, first compound 10 µM", "result": 66.2, "unit": "%"}, {"measurement": "viability, T/C", "setting": "second compound 0.0316 µM, first compound 0.0316 µM", "result": 68.7, "unit": "%"}, {"measurement": "viability, T/C", "setting": "second compound 0.0316 µM, first compound 0.1 µM", "result": 69.3, "unit": "%"}, {"measurement": "viability, T/C", "setting": "second compound 0.0316 µM, first compound 0.316 µM", "result": 67.8, "unit": "%"}, {"measurement": "viability, T/C", "setting": "second compound 0.0316 µM, first compound 1 µM", "result": 77.7, "unit": "%"}, {"measurement": "viability, T/C", "setting": "second compound 0.0316 µM, first compound 3.16 µM", "result": 71.3, "unit": "%"}, {"measurement": "viability, T/C", "setting": "second compound 0.0316 µM, first compound 10 µM", "result": 50.6, "unit": "%"}, {"measurement": "viability, T/C", "setting": "second compound 0.1 µM, first compound 0.0316 µM", "result": 61.6, "unit": "%"}, {"measurement": "viability, T/C", "setting": "second compound 0.1 µM, first compound 0.1 µM", "result": 43.2, "unit": "%"}, {"measurement": "viability, T/C", "setting": "second compound 0.1 µM, first compound 0.316 µM", "result": 67.4, "unit": "%"}, {"measurement": "viability, T/C", "setting": "second compound 0.1 µM, first compound 1 µM", "result": 60.5, "unit": "%"}, {"measurement": "viability, T/C", "setting": "second compound 0.1 µM, first compound 3.16 µM", "result": 51.1, "unit": "%"}, {"measurement": "viability, T/C", "setting": "second compound 0.1 µM, first compound 10 µM", "result": 37.4, "unit": "%"}, {"measurement": "viability, T/C", "setting": "second compound 0.316 µM, first compound 0.0316 µM", "result": 36.9, "unit": "%"}, {"measurement": "viability, T/C", "setting": "second compound 0.316 µM, first compound 0.1 µM", "result": 35.3, "unit": "%"}, {"measurement": "viability, T/C", "setting": "second compound 0.316 µM, first compound 0.316 µM", "result": 29.8, "unit": "%"}, {"measurement": "viability, T/C", "setting": "second compound 0.316 µM, first compound 1 µM", "result": 38.1, "unit": "%"}, {"measurement": "viability, T/C", "setting": "second compound 0.316 µM, first compound 3.16 µM", "result": 27.2, "unit": "%"}, {"measurement": "viability, T/C", "setting": "second compound 0.316 µM, first compound 10 µM", "result": 23.1, "unit": "%"}, {"measurement": "viability, T/C", "setting": "second compound 1 µM, first compound 0.0316 µM", "result": 17.6, "unit": "%"}, {"measurement": "viability, T/C", "setting": "second compound 1 µM, first compound 0.1 µM", "result": 18.7, "unit": "%"}, {"measurement": "viability, T/C", "setting": "second compound 1 µM, first compound 0.316 µM", "result": 15.4, "unit": "%"}, {"measurement": "viability, T/C", "setting": "second compound 1 µM, first compound 1 µM", "result": 19.5, "unit": "%"}, {"measurement": "viability, T/C", "setting": "second compound 1 µM, first compound 3.16 µM", "result": 16.2, "unit": "%"}, {"measurement": "viability, T/C", "setting": "second compound 1 µM, first compound 10 µM", "result": 14.8, "unit": "%"}]}
